Patent US9561289B2, “Peptides for inhibiting tumor growth” (OSPEDALE SAN RAFFAELE SRL, priority 2012, dated 2017)

Columns and labels:
[1] = tested on: CD13-positive (HT-1080 and HUVECs) cells; assay: Binding of NGR peptide/Qdot to CD13-positive cells (fluorescence microscopy); assay type: cell-based, human; conditions: 2 h at 37° C.
Procedure: (§1) (B) Binding of head-to-tail cyclized NGR peptides and disulphide constrained NGR peptide (ac-NGR-2C-TNF1-11, corresponding to acetylated-[…]) (SEQ ID NO:33) conjugated to fluorescent nanoparticles (Qdot) to HT-1080, human umbilical vein cells (HUVECs), and MCF-7 cells. NGR#/Qdots were prepared using the sulfo-SMCC linker (black, bars), whereas ac-NGR-2C-TNF1-11/Qdot were prepared using the BS3 linker (white, bars). Linker-Qdot, i.e. lacking the peptide, are indicated as None. Quantification of staining intensity was performed by using the Photoshop software. Six images were analyzed for each condition. Representative images are shown. Magnification, ×400; scale bar, 20 μm; red, Qdot; blue, nuclear staining with DAPI.
(§2) The binding of NGR-peptide/Qdot conjugates to HT-1080, HUVECs and MCF-7, was analyzed as follows: the cells were grown in chamber slides (3-4×10^4 cell/well, plated 48 h before the experiment). After washing with DMEM containing 1% fetal bovine serum (binding buffer), each NGR-peptide/Qdot conjugate (3-10 nM, in binding buffer) was added to the cells and left to incubate for 2 h at 37° C. in 5% CO2. […] The cells were then analyzed using an Axioscop 40 FL microscope (Carl Zeiss, Germany) equipped with AxioCam MRc5 digital camera and Axiovison software (Carl Zeiss).

[2] = tested on: CD13-negative MCF-7 cells; assay: Binding of NGR peptide/Qdot to CD13-negative cells (fluorescence microscopy); assay type: cell-based, human
Procedure: as §1, §2

WEHI-164 fibrosarcoma = assay: Tumor growth in WEHI-164 fibrosarcoma-bearing mice; assay type: in vivo; conditions: WEHI-164 model, i.p., biweekly, 0.032 to 20 μg
Text: Arrows indicate the time of treatment. Tumor volumes are shown. Mean±S.E (6 or 12 mice/group).
Studies in animal models were approved by the Ethical Committee of the San Raffaele Scientific Institute, and performed according to the prescribed guidelines. BALB/c (Harlan) or C57BL/6N mice (Charles River Laboratories), weighing 16 to 18 g, were challenged with s.c. injection in the left flank of 10^6 WEHI-164 or 7×10^4 RMA living cells. […] Tumor growth was monitored daily by measuring tumor volumes with calipers, as previously described [30]. Animals were sacrificed before tumors reached a diameter of 1.0 to 1.5 cm. Tumor sizes are shown as mean±SE (6 mice/group in each experiment).

Molecule	binding to CD13-positive cells [1]	binding to CD13-negative cells [2]	tumor growth (WEHI-164 fibrosarcoma)
NGR#3-Qdot: NGR#3 coupled to sulfo-SMCC-activated Qdot fluorescent nanoparticles (cyclo(CNGRGG); not fully specified (residue 1); also: linker joined to Qdot605 nanoparticle)	could bind CD13-positive cells	failed to bind	–
CC(C)[C@H]1C(=O)N[C@@H](CCCNC(=N)N)C(=O)NCC(=O)N[C@@H](CC(=O)O)C(=O)N[C@H](Cc2ccccc2)C(=O)N1C [Cilengitide, cyclo(arginylglycyl-aspartyl-D-phenylalanyl-N-methyl-valyl)]	–	–	can delay the growth
